Test results reported in patent US20090175981A1, “COMPOSITIONS, METHODS AND USES FOR A NOVEL FAMILY OF PEPTIDES” (priority 2004, published 2009).
Where “and” joins values, the source holds several entries; their conditions need not be identical. Identical values can stand only once. Marks after values point to notes of the source that are not given here.

Legend:
[1] = target: A-domain of BT NRPS Module 8 (Bt8A) (Brevibacillus texasporus, UniProt Q2VQ14); test: ATP-PPi exchange assay, Module 8 A-domain; type: biochemical; conditions: for relative activation (highest activity = 100%): 0.5 mM amino acid
A-domain of BT NRPS Module 8 (Bt8A), sequence (Q2VQ14 entry or part of it): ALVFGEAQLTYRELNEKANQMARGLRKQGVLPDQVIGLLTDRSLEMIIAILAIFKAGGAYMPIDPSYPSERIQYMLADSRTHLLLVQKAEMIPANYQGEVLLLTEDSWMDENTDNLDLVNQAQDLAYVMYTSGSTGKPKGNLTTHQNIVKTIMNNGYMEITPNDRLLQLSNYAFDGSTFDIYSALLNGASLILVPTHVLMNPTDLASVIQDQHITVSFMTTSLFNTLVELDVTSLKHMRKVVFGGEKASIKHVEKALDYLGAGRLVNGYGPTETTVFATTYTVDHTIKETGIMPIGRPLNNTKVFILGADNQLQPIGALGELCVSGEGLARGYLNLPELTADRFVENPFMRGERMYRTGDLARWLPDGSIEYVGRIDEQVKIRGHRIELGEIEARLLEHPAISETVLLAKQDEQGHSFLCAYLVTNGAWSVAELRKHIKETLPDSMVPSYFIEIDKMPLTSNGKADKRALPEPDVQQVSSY
Procedure: (§1) Cloning, overexpression, and purification of His10-tagged BT A-domain proteins. DNA fragments encoding the A-domains of the BT NRPS Modules 8, 5, 7, 4 and 2 (Bt8A, 8t5A, Bt7A, Bt4A and Bt2A) were PCR-amplified and the PCR products were inserted into the His10-tag recombinant protein expression vector pET16b (Novagen). The A-domain borders were determined as defined by (Konz, et al., 1999). The expression constructs were transformed into the E. coli BL21-AI strain (Invitrogen). Transformants were grown in L-broth at 37° C. to an A600 of 0.6 and then induced with 1 mM IPTG (isopropyl-β-D-thiogalactopyranoside) plus 0.2% L-arabinose. The cells were allowed to grow for two additional hours at 30° C. before being harvested. Purification of the His10-tag recombinant proteins was achieved using the TALON metal affinity resins (BD Biosciences) under conditions recommended in the manual with modifications. Briefly, the E. coli cells were broken by sonication. Cell lysates were cleared by centrifugation at 25,000×g for one hour. His-tagged recombinant proteins were then incubated with the TALON resin, washed, and eluted with 500 mM imidazole. Eluted proteins were dialyzed against a buffer (50 mM HEPES, pH 8.0, 100 mM sodium chloride, 10 mM magnesium chloride, and 1 mM EDTA) and then analyzed with SDS PAGE plus Coomassie Blue staining. […] Concentrations of the purified proteins were determined by using the calculated molar extinction coefficient for the A280.
(§2) ATP-PPi exchange assay. ATP-PPi exchange assays were performed to determine the substrate specificity of an A-domain. ATP-PPi exchanges were assayed as previously described (Stachelhaus, et al., 1998) with minor modifications. The assay mixture contained 50 mM HEPES (pH 8.0), 100 mM NaCl, 10 mM MgCl2, 2 mM ATP, 0.5 mM amino acid, 0.05 mM PPi, 0.15 μCi tetrasodium [^32P]pyrophosphate. Exchange was initiated by addition of purified recombinant A-domain proteins to a total volume of 0.1 ml. The protein concentrations were 0.2 μM for Module 4 and Module 5 A-domains while 2 μM for Module 7 and Module 8 A-domains. […] The charcoal/water suspension was added to a scintillation vial containing 5.0 ml of scintillation fluid, and the bound radioactivity was determined by liquid scintillation counting. […]
(§3) Since a purified recombinant A-domain of an NRPS module can selectively and efficiently activate the cognate amino acid substrate of the NRPS module in an ATP-PPi exchange assay (Konz, et al., 1999; Mootz & Marahiel, 1997), ATP-PPi exchange assays have been used to experimentally establish NRPS module specificities and novel NRPS codons. […] A-domain specificities were determined in ATP-PPi exchange and aa Km assays (see Methods and Materials), and the results are shown in FIG. 5. […]

[2] = system: A-domain of BT NRPS Module 2 (Bt2A); test: ATP-PPi exchange assay, Module 2 A-domain; type: biochemical, Brevibacillus texasporus; conditions: 0.5 mM amino acid
Procedure: as §1
(§4) ATP-PPi exchange assay. ATP-PPi exchange assays were performed to determine the substrate specificity of an A-domain. ATP-PPi exchanges were assayed as previously described (Stachelhaus, et al., 1998) with minor modifications. The assay mixture contained 50 mM HEPES (pH 8.0), 100 mM NaCl, 10 mM MgCl2, 2 mM ATP, 0.5 mM amino acid, 0.05 mM PPi, 0.15 μCi tetrasodium [^32P]pyrophosphate. Exchange was initiated by addition of purified recombinant A-domain proteins to a total volume of 0.1 ml. The protein concentrations were 0.2 μM for Module 4 and Module 5 A-domains while 2 μM for Module 7 and Module 8 A-domains. After incubation at 37° C. for 15 min, the reaction was stopped by addition of 0.5 ml of Terminaton Mix (100 mM tetrasodium pyrophosphate, 3.5% HClO4, and 1.6% [w/v] activated charcoal). The charcoal was pelleted by centrifugation, washed first with 40 mM pyrophosphate plus 1.4% perchloric acid and then with water, and was re-suspended in 0.5 ml of water. The charcoal/water suspension was added to a scintillation vial containing 5.0 ml of scintillation fluid, and the bound radioactivity was determined by liquid scintillation counting. The apparent Km values were determined with substrate concentrations ranging from 0.1 to 10 mM.
(§5) Since a purified recombinant A-domain of an NRPS module can selectively and efficiently activate the cognate amino acid substrate of the NRPS module in an ATP-PPi exchange assay (Konz, et al., 1999; Mootz & Marahiel, 1997), ATP-PPi exchange assays have been used to experimentally establish NRPS module specificities and novel NRPS codons. Recombinant A-domains of Modules 8, 5, 7, 4 and 2 of the BT NRPS were produced and purified as described in Methods and Materials. Almost completely soluble recombinant A-domain proteins were obtained. A-domain specificities were determined in ATP-PPi exchange and aa Km assays (see Methods and Materials), and the results are shown in FIG. 5. […]

[3] = target: A-domain of BT NRPS Module 5 (Brevibacillus texasporus, UniProt Q2VQ15); test: ATP-PPi exchange assay, Module 5 A-domain; type: biochemical; conditions: for relative activation (highest activity = 100%): 0.5 mM amino acid; for Km: read-out: apparent Km
A-domain of BT NRPS Module 5, sequence (Q2VQ15 entry or part of it): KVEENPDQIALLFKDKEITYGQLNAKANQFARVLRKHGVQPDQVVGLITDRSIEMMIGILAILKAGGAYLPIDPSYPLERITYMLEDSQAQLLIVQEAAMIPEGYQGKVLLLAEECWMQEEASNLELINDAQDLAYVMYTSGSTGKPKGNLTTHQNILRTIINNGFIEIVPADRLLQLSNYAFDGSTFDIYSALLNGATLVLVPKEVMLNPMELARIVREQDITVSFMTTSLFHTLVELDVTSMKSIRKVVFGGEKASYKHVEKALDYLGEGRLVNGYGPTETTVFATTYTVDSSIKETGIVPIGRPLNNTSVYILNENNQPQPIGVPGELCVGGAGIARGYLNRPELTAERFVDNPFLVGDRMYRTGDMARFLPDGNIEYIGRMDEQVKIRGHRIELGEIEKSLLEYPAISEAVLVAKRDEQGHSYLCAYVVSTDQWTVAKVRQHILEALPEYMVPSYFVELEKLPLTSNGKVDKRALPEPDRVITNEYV
Procedure: as §1, §4, §5

[4] = target: A-domain of BT NRPS Module 4 (Bt4A) (Brevibacillus texasporus, UniProt Q2VQ15); test: ATP-PPi exchange assay, Module 4 A-domain; type: biochemical; conditions: for relative activation (highest activity = 100%): 0.5 mM amino acid
A-domain of BT NRPS Module 4 (Bt4A), sequence (Q2VQ15 entry or part of it): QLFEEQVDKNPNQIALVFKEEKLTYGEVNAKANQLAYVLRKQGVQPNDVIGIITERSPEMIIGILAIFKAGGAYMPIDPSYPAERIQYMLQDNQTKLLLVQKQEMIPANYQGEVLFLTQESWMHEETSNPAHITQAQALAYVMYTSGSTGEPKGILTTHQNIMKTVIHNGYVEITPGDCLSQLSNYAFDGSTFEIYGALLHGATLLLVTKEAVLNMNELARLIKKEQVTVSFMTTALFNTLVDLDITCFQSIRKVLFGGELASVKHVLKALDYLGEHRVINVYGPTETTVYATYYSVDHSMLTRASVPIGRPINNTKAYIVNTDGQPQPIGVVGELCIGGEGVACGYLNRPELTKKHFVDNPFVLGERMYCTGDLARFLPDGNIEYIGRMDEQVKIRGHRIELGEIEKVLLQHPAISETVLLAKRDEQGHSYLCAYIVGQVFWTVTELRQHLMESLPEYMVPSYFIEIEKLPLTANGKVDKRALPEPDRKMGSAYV
Procedure: as §1, §2, §3

[5] = target: A-domain of BT NRPS Module 7 (Bt7A) (Brevibacillus texasporus, UniProt Q2VQ15); test: ATP-PPi exchange assay, Module 7 A-domain; type: biochemical; conditions: 0.5 mM amino acid
A-domain of BT NRPS Module 7 (Bt7A), sequence (Q2VQ15 entry or part of it): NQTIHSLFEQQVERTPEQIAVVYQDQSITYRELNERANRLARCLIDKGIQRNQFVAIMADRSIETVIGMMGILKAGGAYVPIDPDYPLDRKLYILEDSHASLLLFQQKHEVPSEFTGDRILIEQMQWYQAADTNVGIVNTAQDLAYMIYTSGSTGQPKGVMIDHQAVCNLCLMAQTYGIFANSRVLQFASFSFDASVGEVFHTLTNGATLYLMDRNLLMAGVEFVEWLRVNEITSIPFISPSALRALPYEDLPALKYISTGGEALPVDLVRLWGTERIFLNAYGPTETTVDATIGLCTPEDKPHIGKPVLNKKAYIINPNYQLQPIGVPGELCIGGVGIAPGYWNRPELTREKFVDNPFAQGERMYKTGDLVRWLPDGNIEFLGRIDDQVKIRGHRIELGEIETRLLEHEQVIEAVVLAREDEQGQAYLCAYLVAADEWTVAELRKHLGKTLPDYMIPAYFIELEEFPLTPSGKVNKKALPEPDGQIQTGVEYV

straight run broilers = test: Growth and feed conversion of 3-wk old broilers in batteries, pelleted starter feed (Studies 3-1 and 3-2); type: in vivo, chicken; conditions: BT1583 12 ppm, BMD 50 ppm, COB 90 ppm, alone or combined, pelleted feed
Description: Eight (8) study repetitions per treatment were used, again with 4 birds per pen.

broiler chickens = test: 42-day broiler floor pen trial with natural colibacillosis challenge; type: in vivo, chicken; conditions: for Day 42 Feed/Gain / Day 42 Gain/Bird / Day 42 Mortality (%) / Day 42 Adjusted Feed/Gain: MON 99 ppm, BT1583 12 ppm, BMD 55 ppm; for Day 42 Feed/Gain / Day 42 Gain/Bird: alone or combined; for Day 42 Mortality (%): acute and chronic colibacillosis; for Day 42 Adjusted Feed/Gain: adjusted for weight of mortality
Procedure: A broiler floor pen trial to compare the performance of a new anti-microbial designated for this project as BT1583 alone and in combination with the widely used coccidiostat monensin (MON) to MON fed alone, MON in combination with the also widely used antimicrobial Bacitracin MD (BMD) and BMD alone.
The following levels of each treatment were evaluated:
The study design included 10 pens per treatment and 40 birds per pen housed on day of hatch. Two basal corn-soy based diets of decreasing protein (approximately 23 to 20%) and increasing metabolizable energy (approximately 1400 to 1455 kcal/lb) were used from Day 0 to 21 (starter feed) and Days 22 to 42 (grower feed), respectively. Treatment premixes were measured and blended into diets at required levels. Between days 0 and 21 mortality was less than 1% with all birds growing optimally and of high health across all groups.
Beginning on study day 22, the study director modulated house temperature and air flow to mimic industry conditions conducive to outbreaks of colibacillosis within naïve broiler flocks. This was done to stimulate a natural challenge for this study. Mortality climbed to a house average of approximately 10% by Day 42. A majority of these deaths occurred in groups not receiving BT1583 or MON. Lesions were consistent with those of colibacillosis (air sac, pneumonia, peri-hepatitis, peri-carditis and extreme morbidity). All mortality was documented (weight at death and post-mortem observations). All birds and feeds were weighed at 42 days. All remaining birds were euthanized on Day 42 by asphyxiation with the carcasses submitted for rendering.
The following variables were tested: Response Variables: Gain Per Bird, Feed Per Gain, Mortality (%), Adjusted Feed Per Gain. F test from One Way ANOVA with one blocking factor=location, at Day 42 using 0.05 level of significance.
All Response Variables: LSD T-test procedure for pair-wise comparisons with Type 1 error of means when ANOVA F ratio is significant, overall significance level of 0.05 used. Lines below means (see Table 30, below) indicate groups with insignificant differences in means.
Adjusted Feed/Gain: The total weight of mortality in each pen was added to the final live weight, that value reduced by subtracting the initial weight and then dividing that value into the Total feed consumed to calculate the Adjusted Feed/Gain.

CC[C@H](C)[C@H](N)C(=O)O [L-Ile]
relative activation (highest activity = 100%) [1]: 4%
relative activation (highest activity = 100%) [2]: 19%
relative activation (highest activity = 100%) [3]: 23%
Km [3]: 2.78 mM
relative activation (highest activity = 100%) [4]: 100%
Km ([4]; read-out: apparent Km): 500 µM

CC(C)C[C@H](N)C(=O)O [L-Leu]
relative activation (highest activity = 100%) [2]: 98%
relative activation (highest activity = 100%) [3]: 17%
relative activation (highest activity = 100%) [4]: 7%

NCCCC[C@H](N)C(=O)O [L-Lys]
relative activation (highest activity = 100%) [1]: 10%
activation [5]: only amino acid that activated

CSCC[C@H](N)C(=O)O [L-Met]
relative activation (highest activity = 100%) [2]: 100%

N[C@@H](Cc1ccccc1)C(=O)O [L-Phe]
relative activation (highest activity = 100%) [2]: 3.5%

CC(C)[C@H](N)C(=O)O [L-Val]
relative activation (highest activity = 100%) [1]: 100%
Km ([1]; read-out: apparent Km): 2.75 mM
relative activation (highest activity = 100%) [2]: 67%
relative activation (highest activity = 100%) [3]: 100%
Km [3]: 1.11 mM
relative activation (highest activity = 100%) [4]: 9%

CC[C@@]1([C@@H]2O[C@@H]([C@H]3O[C@@](O)(CO)[C@H](C)C[C@@H]3C)C[C@@H]2C)CC[C@H]([C@]2(C)CC[C@]3(C[C@H](O)[C@@H](C)[C@@H]([C@@H](C)[C@@H](OC)[C@H](C)C(=O)O)O3)O2)O1 [Monensin, monensin]
20-day cumulative feed conversion rate, Mean (straight run broilers): 1.3712
21-day cumulative feed conversion rate, Estimated Marginal Mean (straight run broilers): 1.371
21-day cumulative weight gain, Mean (straight run broilers; listed as COB): 792.8438 and 792.844
Day 42 Feed/Gain (broiler chickens): 1.854^b
Day 42 Gain/Bird (broiler chickens): 4.111^bcd lb
Day 42 Mortality (%) (broiler chickens): 8.00^a %
Day 42 Adjusted Feed/Gain (broiler chickens): 1.761^b
mortality rate compared with non-supplemented controls (broiler chickens; alone or in combination): lower mortality rates

Bacitracin MD [BMD, reference compound]
20-day cumulative feed conversion rate, Mean (straight run broilers): 1.3397
21-day cumulative feed conversion rate, Estimated Marginal Mean (straight run broilers): 1.340
21-day cumulative weight gain, Mean (straight run broilers): 832.9688 and 832.969
Day 42 Feed/Gain (broiler chickens): 2.147^c
Day 42 Gain/Bird (broiler chickens): 3.971^cd lb
Day 42 Mortality (%) (broiler chickens): 18.25^bc %
Day 42 Adjusted Feed/Gain (broiler chickens): 1.838^bc
